The IC50 is the concentration that gives 50% inhibition.

Each structure is given as a SMILES string.

In experiment [1] the target is T1, Glucocorticoid receptor (Homo sapiens, UniProt P04150).
T1 sequence (P04150 whole entry): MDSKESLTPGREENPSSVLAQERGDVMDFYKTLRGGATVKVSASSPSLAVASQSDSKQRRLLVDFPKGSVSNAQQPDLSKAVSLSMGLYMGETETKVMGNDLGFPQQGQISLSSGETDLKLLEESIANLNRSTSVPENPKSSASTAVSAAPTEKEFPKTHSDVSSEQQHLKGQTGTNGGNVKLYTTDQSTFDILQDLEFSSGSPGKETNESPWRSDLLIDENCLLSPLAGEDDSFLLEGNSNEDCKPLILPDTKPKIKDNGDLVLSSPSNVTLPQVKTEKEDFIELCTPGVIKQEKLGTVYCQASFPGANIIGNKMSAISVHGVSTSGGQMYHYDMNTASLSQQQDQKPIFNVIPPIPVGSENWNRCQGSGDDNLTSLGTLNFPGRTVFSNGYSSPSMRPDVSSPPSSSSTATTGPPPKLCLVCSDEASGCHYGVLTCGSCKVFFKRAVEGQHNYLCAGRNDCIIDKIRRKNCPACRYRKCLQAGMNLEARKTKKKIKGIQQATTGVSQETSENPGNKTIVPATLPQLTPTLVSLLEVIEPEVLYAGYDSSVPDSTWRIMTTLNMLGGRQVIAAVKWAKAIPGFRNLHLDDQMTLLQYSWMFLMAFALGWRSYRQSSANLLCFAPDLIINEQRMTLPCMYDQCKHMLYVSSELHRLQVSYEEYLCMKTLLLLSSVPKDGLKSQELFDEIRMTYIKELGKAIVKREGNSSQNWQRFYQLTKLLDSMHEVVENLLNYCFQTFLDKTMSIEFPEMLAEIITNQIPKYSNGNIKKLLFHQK
The experiment in a line: Transactivation activity at human glucocorticoid receptor in cells co-expressing GRE by luciferase reporter gene assay relative to control. Particulars: read-out: Efficacy. For orientation: Reporter assays use an easily measured gene product as a stand-in for the process of interest.

In experiment [2] the target is T2, Glucocorticoid receptor (Rattus norvegicus, UniProt P06536).
T2 sequence (P06536 whole entry): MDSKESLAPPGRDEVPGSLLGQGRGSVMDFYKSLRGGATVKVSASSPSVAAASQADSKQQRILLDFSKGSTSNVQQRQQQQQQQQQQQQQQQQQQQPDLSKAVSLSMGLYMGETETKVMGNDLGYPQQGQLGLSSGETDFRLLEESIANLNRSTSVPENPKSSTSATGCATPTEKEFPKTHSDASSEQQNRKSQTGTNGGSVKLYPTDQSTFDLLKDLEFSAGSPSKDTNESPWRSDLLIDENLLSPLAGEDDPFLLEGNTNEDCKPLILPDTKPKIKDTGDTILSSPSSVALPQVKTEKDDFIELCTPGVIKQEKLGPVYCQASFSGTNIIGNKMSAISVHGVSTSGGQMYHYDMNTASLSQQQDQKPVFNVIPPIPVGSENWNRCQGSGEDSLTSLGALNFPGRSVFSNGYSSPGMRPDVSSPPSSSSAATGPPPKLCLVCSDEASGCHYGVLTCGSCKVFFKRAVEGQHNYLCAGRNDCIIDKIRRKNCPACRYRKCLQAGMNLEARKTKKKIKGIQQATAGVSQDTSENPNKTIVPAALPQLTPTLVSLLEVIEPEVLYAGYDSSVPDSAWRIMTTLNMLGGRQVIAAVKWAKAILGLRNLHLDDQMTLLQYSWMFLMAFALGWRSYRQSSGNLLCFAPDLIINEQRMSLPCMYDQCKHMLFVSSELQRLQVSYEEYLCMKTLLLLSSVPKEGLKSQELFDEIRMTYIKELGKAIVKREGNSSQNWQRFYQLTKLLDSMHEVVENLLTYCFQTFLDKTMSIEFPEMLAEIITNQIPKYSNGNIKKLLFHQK
The experiment in a line: Transactivation activity at glucocorticoid receptor in rat H4II-E cells assessed as induction of tyrosine aminotransferase. Format: ADME, cell-based.

Experiment [3] addresses T1, Glucocorticoid receptor. Kind of experiment: Transrepression activity at glucocorticoid receptor in human H292 cells assessed as inhibition of TNF-induced IL8 production. The format is cell-based.
Experiment [4] addresses T1, Glucocorticoid receptor. The experiment in a line: Transactivation activity at glucocorticoid receptor in human HepG2 cells assessed as induction of tyrosine aminotransferase. The format is ADME, cell-based.

For the molecule `C[C@]12CCC(=O)C=C1CC[C@@H]1[C@@H]2[C@@H](O)C[C@@]2(C)[C@H]1CC[C@]2(O)C(=O)CSc1nc2ccccc2s1`, the Emax in experiment [1] turned out to be 30%.
Consider `C[C@]12Cc3cnn(-c4ccc(F)cc4)c3C=C1CC[C@@H]1[C@@H]2[C@@H](O)C[C@@]2(C)[C@H]1CC[C@]2(O)C(=O)CSc1ccccn1`, for which the half-maximal inhibitory concentration (IC50) in experiment [2] came out at 4.5 nM; in experiment [3] it was 0.5 nM; in experiment [4] it was 4.7 nM.
For `Cn1c(SCC(=O)[C@@]2(O)CC[C@H]3[C@@H]4CCC5=Cc6c(cnn6C6CCCCC6)C[C@]5(C)[C@H]4[C@@H](O)C[C@@]32C)nc2ccccc21`, the IC50 in experiment [2] stood at 1000 nM; in experiment [3] it was 6.6 nM. Moreover, in experiment [1], the Emax came out at 75%.
With `C[C@]12Cc3cnn(C4CCCCC4)c3C=C1CC[C@@H]1[C@@H]2[C@@H](O)C[C@@]2(C)[C@H]1CC[C@]2(O)C(=O)CSc1nc2ccccc2o1`, the IC50 came out at 31.6 nM in experiment [2], 3.12 nM in experiment [3] and 82.1 nM in experiment [4]. Moreover, the Emax in experiment [1] amounted to 72%.
Take `C[C@]12Cc3cnn(C4CCCCC4)c3C=C1CC[C@@H]1[C@@H]2[C@@H](O)C[C@@]2(C)[C@H]1CC[C@]2(O)C(=O)CSc1ccccn1`: the half-maximal inhibitory concentration (IC50) in experiment [3] came to 4.4 nM. Further, the Emax in experiment [1] is 87%.
Take `C[C@]12Cc3cnn(-c4ccccc4)c3C=C1CC[C@@H]1[C@@H]2[C@@H](O)C[C@@]2(C)[C@H]1CC[C@]2(O)C(=O)CSc1nc2ccccc2s1`: the IC50 came out at 57.3 nM in experiment [2], 7.5 nM in experiment [3] and 165 nM in experiment [4]. Also, the Emax in experiment [1] amounted to 89%.
For `C[C@]12Cc3cnn(C4CCCCC4)c3C=C1CC[C@@H]1[C@@H]2[C@@H](O)C[C@@]2(C)[C@H]1CC[C@]2(O)C(=O)CSc1ccc2ccccc2n1`, the IC50 in experiment [3] stood at 44.7 nM. Besides, the Emax in experiment [1] came out at 71%.
With `C[C@]12Cc3cnn(C4CCCCC4)c3C=C1CC[C@@H]1[C@@H]2[C@@H](O)C[C@@]2(C)[C@H]1CC[C@]2(O)C(=O)CSc1cnc2ccccc2n1`, the 50% inhibitory concentration (IC50) in experiment [3] is 12.4 nM. For the same molecule, in experiment [1], the Emax turned out to be 84%.
For `C[C@]12Cc3cnn(-c4ccccc4)c3C=C1CC[C@@H]1[C@@H]2[C@@H](O)C[C@@]2(C)[C@H]1CC[C@]2(O)C(=O)COc1cnc2ccccc2n1` the same measures were 3.7 nM and 56%.
As for `COc1ccc(-n2ncc3c2C=C2CC[C@@H]4[C@H]([C@@H](O)C[C@@]5(C)[C@H]4CC[C@]5(O)C(=O)CSc4nc5ccccc5s4)[C@@]2(C)C3)cc1`, the half-maximal inhibitory concentration (IC50) in experiment [3] was found to be 107 nM.
As to `C[C@]12Cc3cnn(-c4ccccn4)c3C=C1CC[C@@H]1[C@@H]2[C@@H](O)C[C@@]2(C)[C@H]1CC[C@]2(O)C(=O)CSc1nc2ccccc2s1`, the IC50 in experiment [3] worked out at 179 nM.
On the same count and under the same terms, in the case of `C[C@]12Cc3cnn(C4CCOCC4)c3C=C1CC[C@@H]1[C@@H]2[C@@H](O)C[C@@]2(C)[C@H]1CC[C@]2(O)C(=O)CSc1nc2ccccc2s1` it was 86.4 nM.
For `C[C@]12Cc3cnn(C4CCCCC4)c3C=C1CC[C@@H]1[C@@H]2[C@@H](O)C[C@@]2(C)[C@H]1CC[C@]2(O)C(=O)CSc1nc2ccccc2s1`, the figures for the IC50 in experiment [2], in experiment [3] and in experiment [4] were 54.7 nM, 7.1 nM and 400 nM, respectively. For the same molecule, the Emax in experiment [1] is 78%.
In the case of `C[C@]12Cc3cnn(-c4ccc(F)cc4)c3C=C1CC[C@@H]1[C@@H]2[C@@H](O)C[C@@]2(C)[C@H]1CC[C@]2(O)C(=O)CSc1nc2ccccc2s1`, the results for the concentration for half-maximal inhibition (IC50) in experiment [2], in experiment [3] and in experiment [4] were 24.1 nM, 1.7 nM and 101 nM, respectively.
Consider `C[C@]12Cc3cnn(-c4ccc(F)cc4)c3C=C1CC[C@@H]1[C@@H]2[C@@H](O)C[C@@]2(C)[C@H]1CC[C@]2(O)C(=O)COc1nc2ccccc2s1`, for which the half-inhibitory concentration (IC50) in experiment [2] was 84 nM; in experiment [3] it was 2.1 nM.
As for `Cn1c(SCC(=O)[C@@]2(O)CC[C@H]3[C@@H]4CCC5=Cc6c(cnn6-c6ccc(F)cc6)C[C@]5(C)[C@H]4[C@@H](O)C[C@@]32C)nc2ccccc21`, the figures for the IC50 in experiment [2], in experiment [3] and in experiment [4] were 174 nM, 1.1 nM and 88.7 nM, respectively.
As to `Cn1c(OCC(=O)[C@@]2(O)CC[C@H]3[C@@H]4CCC5=Cc6c(cnn6-c6ccc(F)cc6)C[C@]5(C)[C@H]4[C@@H](O)C[C@@]32C)nc2ccccc21`, the IC50 in experiment [2] came to 78 nM; in experiment [3] it was 2.9 nM.
Regarding `C[C@]12Cc3cnn(-c4ccc(F)cc4)c3C=C1CC[C@@H]1[C@@H]2[C@@H](O)C[C@@]2(C)[C@H]1CC[C@]2(O)C(=O)CSc1ccc2ccccc2c1`, the IC50 in experiment [2] stood at 52.5 nM; in experiment [3], 0.72 nM; in experiment [4] it was 30.5 nM.
On to `C[C@]12Cc3cnn(-c4ccc(F)cc4)c3C=C1CC[C@@H]1[C@@H]2[C@@H](O)C[C@@]2(C)[C@H]1CC[C@]2(O)C(=O)COc1ccc2ccccc2c1`, for which the half-inhibitory concentration (IC50) amounted to 58 nM in experiment [2], 1.06 nM in experiment [3] and 29.2 nM in experiment [4].
In the case of `C[C@]12Cc3cnn(-c4ccc(F)cc4)c3C=C1CC[C@@H]1[C@@H]2[C@@H](O)C[C@@]2(C)[C@H]1CC[C@]2(O)C(=O)CSc1ccc2ccccc2n1`, the figures for the IC50 in experiment [2], in experiment [3] and in experiment [4] were 24.3 nM, 5.3 nM and 18.3 nM, respectively.
With `C[C@]12Cc3cnn(-c4ccc(F)cc4)c3C=C1CC[C@@H]1[C@@H]2[C@@H](O)C[C@@]2(C)[C@H]1CC[C@]2(O)C(=O)COc1ccc2ccccc2n1`, the IC50 is 44.7 nM in experiment [2] and 1.8 nM in experiment [3].
As to `C[C@]12Cc3cnn(-c4ccc(F)cc4)c3C=C1CC[C@@H]1[C@@H]2[C@@H](O)C[C@@]2(C)[C@H]1CC[C@]2(O)C(=O)COc1cnc2ccccc2n1`, the half-inhibitory concentration (IC50) in experiment [3] is 1.89 nM; in experiment [4], 98.7 nM.
As for `C[C@]12Cc3cnn(-c4ccc(F)cc4)c3C=C1CC[C@@H]1[C@@H]2[C@@H](O)C[C@@]2(C)[C@H]1CC[C@]2(O)C(=O)CSc1nccc2ccccc12`, the IC50 in experiment [2] was determined as 65.4 nM; in experiment [3] it was 1.6 nM; in experiment [4], 37.3 nM.
As to `C[C@]12Cc3cnn(-c4ccc(F)cc4)c3C=C1CC[C@@H]1[C@@H]2[C@@H](O)C[C@@]2(C)[C@H]1CC[C@]2(O)C(=O)CSc1ncccn1`, the half-inhibitory concentration (IC50) was 14.3 nM in experiment [2], 0.6 nM in experiment [3] and 37.7 nM in experiment [4].
Consider `C[C@]12Cc3cnn(-c4ccc(F)cc4)c3C=C1CC[C@@H]1[C@@H]2[C@@H](O)C[C@@]2(C)[C@H]1CC[C@]2(O)C(=O)CSc1nc2ccccc2c(=O)[nH]1`, for which the concentration for half-maximal inhibition (IC50) in experiment [2] stood at 86.5 nM; in experiment [3], 3 nM; in experiment [4], 93.5 nM.
Take `C[C@]12CCC(=O)C=C1CC[C@@H]1[C@@H]2[C@@H](O)C[C@@]2(C)[C@H]1CC[C@]2(O)C(=O)CSc1nc2ncccc2o1`: the IC50 in experiment [3] came to 61.3 nM. The Emax in experiment [1] was 37%.
Turning to `C[C@]12CCC(=O)C=C1CC[C@@H]1[C@@H]2[C@@H](O)C[C@@]2(C)[C@H]1CC[C@]2(O)C(=O)CSc1nnc(-c2ccccc2)o1`, the half-inhibitory concentration (IC50) in experiment [3] was 29.2 nM. In addition, the Emax in experiment [1] stood at 54%.
For `Cc1cccc(SCC(=O)[C@@]2(O)CC[C@H]3[C@@H]4CCC5=CC(=O)CC[C@]5(C)[C@H]4[C@@H](O)C[C@@]32C)n1`, in experiment [3], the IC50 was 127 nM. The Emax in experiment [1] came out at 18%.
As for `C[C@]12CCC(=O)C=C1CC[C@@H]1[C@@H]2[C@@H](O)C[C@@]2(C)[C@H]1CC[C@]2(O)C(=O)CSc1ccc(Cl)c(Cl)c1`, the IC50 in experiment [3] stood at 27.2 nM. In experiment [1], the Emax was determined as 28%.

These data come from ChEMBL document CHEMBL2021850, “Steroidal C-21 heteroaryl thioethers. Part 3: pregn-4-eno-[3,2-c]pyrazole fused A ring modified steroids as selective glucocorticoid receptor modulators (dissociated steroids)” (Bioorg Med Chem Lett, 2012).
